From PMC5458547, “Discovery of first-in-class reversible dual small molecule inhibitors against G9a and DNMTs in hematological malignancies” (Nature Communications, 2017)

Key:
JMJD2A = target: T1, JMJD2A (Homo sapiens, UniProt O75164); test: Epigenetics selectivity panel (BPS Bioscience); type: biochemical
T1 construct: purchased DiscoverX KINOMEscan (kinases); BPS Bioscience (epigenetic targets)

Human HDAC6 = target: T2, Human HDAC6 (Homo sapiens, UniProt Q9UBN7); test: HDAC6 enzyme activity assay; type: biochemical
T2 construct: purchased DiscoverX KINOMEscan (kinases); BPS Bioscience (epigenetic targets)

SK-MEL-103 = test: Cell proliferation assay (MTS); type: cell-based; details: Homo sapiens, Melanoma
PAMPA permeability = type: in vitro ADME; details: pH 7.4
H460 = test: Cell proliferation assay (MTS); type: cell-based; details: Homo sapiens, NCI-H460; NSCLC
PRMT3 = target: T3, PRMT3 (Homo sapiens, UniProt O60678); test: Epigenetics selectivity panel (BPS Bioscience); type: biochemical
T3 construct: purchased DiscoverX KINOMEscan (kinases); BPS Bioscience (epigenetic targets)

ATAD2B = target: T4, ATAD2B (Homo sapiens, UniProt Q9ULI0); test: Epigenetics selectivity panel (BPS Bioscience); type: binding
T4 construct: purchased DiscoverX KINOMEscan (kinases); BPS Bioscience (epigenetic targets)

NOMO-1 = test: Cell proliferation assay (MTS); type: cell-based; details: Homo sapiens, AML, 48 h
KASUMI-1 = test: Cell proliferation assay (MTS); type: cell-based; details: Homo sapiens, AML, 48 h
MGH-U3 = test: Cell proliferation assay (MTS); type: cell-based; details: Homo sapiens; Bladder
[1] = Liver microsomal stability; type: in vitro ADME; details: human, human liver microsomes; read-out: Liver Microsomal Stability. Estimation T1/2
OPM2 = test: Cell proliferation assay (MTS); type: cell-based; details: Homo sapiens, OPM-2; MM
JJN3 = test: Cell proliferation assay (MTS); type: cell-based; details: Homo sapiens, JJN-3; MM
A549 = test: Cell proliferation assay (MTS); type: cell-based; details: Homo sapiens, NSCLC
PRMT8 = target: T5, PRMT8 (Homo sapiens, UniProt Q9NR22); test: Epigenetics selectivity panel (BPS Bioscience); type: biochemical
T5 construct: purchased DiscoverX KINOMEscan (kinases); BPS Bioscience (epigenetic targets)

RT112 = test: Cell proliferation assay (MTS); type: cell-based; details: Homo sapiens, RT-112; Bladder
UACC-62 = test: Cell proliferation assay (MTS); type: cell-based; details: Homo sapiens, Melanoma
451-LU = test: Cell proliferation assay (MTS); type: cell-based; details: Homo sapiens, Melanoma
H358 = test: Cell proliferation assay (MTS); type: cell-based; details: Homo sapiens, NCI-H358; NSCLC
COLO-205 = test: Cell proliferation assay (MTS); type: cell-based; details: Homo sapiens, Colorectal
DNMT3B = target: T6, DNMT3B (Homo sapiens, UniProt Q9UBC3); test: Epigenetics selectivity panel (BPS Bioscience); type: biochemical
T6 construct: purchased BPS Bioscience (contract panel)

JMJD2D = target: T7, JMJD2D (Homo sapiens, UniProt Q6B0I6); test: Epigenetics selectivity panel (BPS Bioscience); type: biochemical
T7 construct: purchased DiscoverX KINOMEscan (kinases); BPS Bioscience (epigenetic targets)

NALM-20 = test: Cell proliferation assay (MTS); type: cell-based; details: Homo sapiens; ALL, 48 h
MGH-U4 = test: Cell proliferation assay (MTS); type: cell-based; details: Homo sapiens; Bladder
CAKI-2 = test: Cell proliferation assay (MTS); type: cell-based; details: Homo sapiens, Renal
CREBBP = target: T8, CREBBP (Homo sapiens, UniProt Q92793); test: Epigenetics selectivity panel (BPS Bioscience); type: binding
T8 construct: purchased DiscoverX KINOMEscan (kinases); BPS Bioscience (epigenetic targets)
T8 sequence (Q92793 whole entry): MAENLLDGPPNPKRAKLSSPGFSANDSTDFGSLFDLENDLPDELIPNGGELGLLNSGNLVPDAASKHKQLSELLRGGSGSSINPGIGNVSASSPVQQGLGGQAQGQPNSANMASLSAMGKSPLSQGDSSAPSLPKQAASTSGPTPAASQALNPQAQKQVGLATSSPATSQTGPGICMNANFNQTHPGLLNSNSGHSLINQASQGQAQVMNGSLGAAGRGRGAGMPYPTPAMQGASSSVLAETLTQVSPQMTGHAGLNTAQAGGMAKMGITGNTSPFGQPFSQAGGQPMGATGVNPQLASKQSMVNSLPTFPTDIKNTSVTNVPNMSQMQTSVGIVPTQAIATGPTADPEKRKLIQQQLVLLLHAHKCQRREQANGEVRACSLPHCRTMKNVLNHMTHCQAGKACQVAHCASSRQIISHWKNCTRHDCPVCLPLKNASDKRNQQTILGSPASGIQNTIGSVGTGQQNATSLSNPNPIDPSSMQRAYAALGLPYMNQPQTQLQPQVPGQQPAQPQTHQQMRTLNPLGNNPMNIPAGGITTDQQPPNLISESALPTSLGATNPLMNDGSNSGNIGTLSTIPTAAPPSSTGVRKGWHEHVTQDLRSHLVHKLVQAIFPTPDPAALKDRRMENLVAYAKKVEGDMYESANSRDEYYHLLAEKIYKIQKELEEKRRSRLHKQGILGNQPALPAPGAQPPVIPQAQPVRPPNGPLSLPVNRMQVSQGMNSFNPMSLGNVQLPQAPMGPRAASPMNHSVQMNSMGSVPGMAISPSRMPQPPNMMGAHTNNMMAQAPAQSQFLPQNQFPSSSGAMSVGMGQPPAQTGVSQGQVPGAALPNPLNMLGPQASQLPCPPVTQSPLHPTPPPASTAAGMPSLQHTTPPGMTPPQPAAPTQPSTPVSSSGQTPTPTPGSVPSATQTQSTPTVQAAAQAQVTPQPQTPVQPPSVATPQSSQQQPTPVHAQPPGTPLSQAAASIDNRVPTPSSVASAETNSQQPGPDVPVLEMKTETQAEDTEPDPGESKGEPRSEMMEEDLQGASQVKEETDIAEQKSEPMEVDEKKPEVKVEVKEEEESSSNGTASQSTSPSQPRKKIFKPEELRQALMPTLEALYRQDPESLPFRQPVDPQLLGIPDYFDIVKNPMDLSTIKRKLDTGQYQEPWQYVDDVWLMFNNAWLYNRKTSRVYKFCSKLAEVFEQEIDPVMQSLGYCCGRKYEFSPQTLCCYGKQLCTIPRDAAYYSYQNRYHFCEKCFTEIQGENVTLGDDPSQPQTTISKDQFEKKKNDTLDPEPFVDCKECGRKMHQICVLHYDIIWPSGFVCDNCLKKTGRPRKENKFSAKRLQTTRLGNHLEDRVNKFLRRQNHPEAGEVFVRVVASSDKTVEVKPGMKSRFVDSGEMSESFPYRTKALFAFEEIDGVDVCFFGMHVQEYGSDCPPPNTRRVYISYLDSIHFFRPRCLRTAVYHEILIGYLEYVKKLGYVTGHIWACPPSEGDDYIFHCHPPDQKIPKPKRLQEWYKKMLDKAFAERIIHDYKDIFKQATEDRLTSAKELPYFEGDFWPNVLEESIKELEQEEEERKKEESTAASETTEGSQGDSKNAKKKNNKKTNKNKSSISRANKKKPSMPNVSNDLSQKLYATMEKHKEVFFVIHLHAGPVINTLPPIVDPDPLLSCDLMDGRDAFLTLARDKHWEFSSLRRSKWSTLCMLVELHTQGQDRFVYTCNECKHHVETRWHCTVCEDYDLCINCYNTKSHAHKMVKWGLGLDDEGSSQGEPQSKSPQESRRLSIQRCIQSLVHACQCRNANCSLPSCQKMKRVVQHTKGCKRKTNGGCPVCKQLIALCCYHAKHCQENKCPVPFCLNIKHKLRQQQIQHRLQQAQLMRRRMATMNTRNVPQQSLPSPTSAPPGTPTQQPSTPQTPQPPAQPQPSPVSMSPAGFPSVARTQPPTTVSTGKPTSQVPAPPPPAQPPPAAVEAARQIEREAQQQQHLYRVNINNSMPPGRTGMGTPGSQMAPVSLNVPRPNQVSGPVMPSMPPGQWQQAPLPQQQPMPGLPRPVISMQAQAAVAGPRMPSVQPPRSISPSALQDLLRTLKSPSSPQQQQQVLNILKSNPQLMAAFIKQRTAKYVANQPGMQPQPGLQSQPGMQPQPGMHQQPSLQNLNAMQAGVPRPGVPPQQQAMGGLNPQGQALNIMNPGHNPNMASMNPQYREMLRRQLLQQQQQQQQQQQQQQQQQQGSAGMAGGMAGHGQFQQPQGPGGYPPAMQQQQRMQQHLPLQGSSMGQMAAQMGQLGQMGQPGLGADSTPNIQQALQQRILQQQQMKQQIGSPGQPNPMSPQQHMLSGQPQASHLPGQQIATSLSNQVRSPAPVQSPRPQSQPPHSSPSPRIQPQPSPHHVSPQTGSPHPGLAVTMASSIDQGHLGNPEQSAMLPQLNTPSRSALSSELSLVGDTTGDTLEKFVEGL

JMJD1A = target: T9, JMJD1A (Homo sapiens, UniProt Q9Y4C1); test: Epigenetics selectivity panel (BPS Bioscience); type: biochemical
T9 construct: purchased DiscoverX KINOMEscan (kinases); BPS Bioscience (epigenetic targets)
T9 sequence (Q9Y4C1 whole entry): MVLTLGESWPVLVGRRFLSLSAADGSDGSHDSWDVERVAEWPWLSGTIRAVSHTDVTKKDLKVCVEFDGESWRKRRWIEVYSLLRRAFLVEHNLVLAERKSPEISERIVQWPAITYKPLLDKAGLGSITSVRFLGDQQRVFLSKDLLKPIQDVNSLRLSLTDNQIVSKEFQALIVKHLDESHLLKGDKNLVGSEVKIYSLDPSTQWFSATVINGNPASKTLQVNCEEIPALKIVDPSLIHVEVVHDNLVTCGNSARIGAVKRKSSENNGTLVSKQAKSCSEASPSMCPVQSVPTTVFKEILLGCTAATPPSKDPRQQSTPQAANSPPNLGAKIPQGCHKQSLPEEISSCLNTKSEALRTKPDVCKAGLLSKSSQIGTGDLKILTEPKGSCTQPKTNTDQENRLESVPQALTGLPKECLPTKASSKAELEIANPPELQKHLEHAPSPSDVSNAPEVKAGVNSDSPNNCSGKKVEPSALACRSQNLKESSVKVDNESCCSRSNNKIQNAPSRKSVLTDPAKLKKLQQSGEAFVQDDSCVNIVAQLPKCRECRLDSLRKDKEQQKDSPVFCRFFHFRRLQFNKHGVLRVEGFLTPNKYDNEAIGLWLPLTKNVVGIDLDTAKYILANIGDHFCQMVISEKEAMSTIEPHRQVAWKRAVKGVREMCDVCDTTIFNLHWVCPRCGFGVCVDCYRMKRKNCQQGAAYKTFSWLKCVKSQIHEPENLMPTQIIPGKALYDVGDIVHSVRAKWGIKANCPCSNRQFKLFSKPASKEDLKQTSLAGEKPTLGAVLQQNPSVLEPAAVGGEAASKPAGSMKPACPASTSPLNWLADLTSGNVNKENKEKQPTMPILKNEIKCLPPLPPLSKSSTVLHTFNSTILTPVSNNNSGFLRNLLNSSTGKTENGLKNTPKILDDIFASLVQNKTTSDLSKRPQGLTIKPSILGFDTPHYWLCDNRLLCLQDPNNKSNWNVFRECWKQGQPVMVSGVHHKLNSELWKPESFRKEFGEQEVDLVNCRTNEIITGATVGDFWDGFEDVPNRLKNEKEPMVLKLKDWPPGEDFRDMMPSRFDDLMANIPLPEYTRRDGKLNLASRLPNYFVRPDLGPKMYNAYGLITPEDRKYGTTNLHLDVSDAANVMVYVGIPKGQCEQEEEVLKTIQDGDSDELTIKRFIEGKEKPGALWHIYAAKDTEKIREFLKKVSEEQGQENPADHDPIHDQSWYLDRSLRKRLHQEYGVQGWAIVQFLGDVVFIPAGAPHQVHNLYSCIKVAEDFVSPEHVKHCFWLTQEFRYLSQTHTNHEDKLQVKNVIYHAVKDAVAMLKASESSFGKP

KMS28BM = test: Cell proliferation assay (MTS); type: cell-based; details: Homo sapiens, KMS-28BM; MM
cytochrome P450 2C19 = target: T10, cytochrome P450 2C19 (Homo sapiens, UniProt P33261); type: in vitro ADME; details: microsomes, 10 min, 10 µM
T10 construct: tissue BD Gentest; host or cells: human liver microsomes
Experimental: (§1) Details are provided in Supplementary Information. […]
(§2) 3A4) was evaluated in human liver microsomes at Wuxi (http://www.wuxi.com/). Test compounds (10 µM) and the corresponding substrates for each P450 isoform (20 µL) were incubated with 140 µL liver […]
(§3) reaction was terminated by adding 400 µL cold stop solution (200 ng/mL tolbutamide in ACN) and samples were centrifuged at 4000 rpm for 20 minutes. Supernatants were analyzed by LC-MS/MS (Shimadzu LC 20-AD - API 4000), using peak area ratio of analyte/internal standard. Test compounds and positive controls were tested in duplicates. The percentage of inhibition was calculated as the ratio of substrate metabolite detected in treated and non-treated wells. […]

cytochrome P450 2D6 = target: T11, cytochrome P450 2D6 (Homo sapiens, UniProt P10635); type: in vitro ADME; details: microsomes, 10 min, 10 µM
T11 construct: tissue BD Gentest; host or cells: human liver microsomes
T11 sequence (P10635 whole entry): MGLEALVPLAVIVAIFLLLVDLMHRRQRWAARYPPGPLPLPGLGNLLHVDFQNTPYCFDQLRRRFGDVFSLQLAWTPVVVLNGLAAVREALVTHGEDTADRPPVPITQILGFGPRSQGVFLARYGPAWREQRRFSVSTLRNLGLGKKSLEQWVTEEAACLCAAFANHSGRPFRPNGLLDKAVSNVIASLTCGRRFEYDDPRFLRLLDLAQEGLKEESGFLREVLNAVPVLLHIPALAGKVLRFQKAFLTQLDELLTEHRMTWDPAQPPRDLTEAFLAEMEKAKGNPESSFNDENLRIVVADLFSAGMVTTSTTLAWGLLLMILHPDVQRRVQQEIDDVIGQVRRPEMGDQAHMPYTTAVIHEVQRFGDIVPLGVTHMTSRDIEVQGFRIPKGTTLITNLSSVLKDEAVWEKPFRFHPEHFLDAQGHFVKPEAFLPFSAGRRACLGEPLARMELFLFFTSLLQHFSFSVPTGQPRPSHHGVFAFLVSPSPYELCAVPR
Experimental: as §1, §2, §3

cytochrome P450 2C9 = target: T12, cytochrome P450 2C9 (Homo sapiens, UniProt P11712); type: in vitro ADME; details: microsomes, 10 min, 10 µM
T12 construct: tissue BD Gentest; host or cells: human liver microsomes
T12 sequence (P11712 whole entry): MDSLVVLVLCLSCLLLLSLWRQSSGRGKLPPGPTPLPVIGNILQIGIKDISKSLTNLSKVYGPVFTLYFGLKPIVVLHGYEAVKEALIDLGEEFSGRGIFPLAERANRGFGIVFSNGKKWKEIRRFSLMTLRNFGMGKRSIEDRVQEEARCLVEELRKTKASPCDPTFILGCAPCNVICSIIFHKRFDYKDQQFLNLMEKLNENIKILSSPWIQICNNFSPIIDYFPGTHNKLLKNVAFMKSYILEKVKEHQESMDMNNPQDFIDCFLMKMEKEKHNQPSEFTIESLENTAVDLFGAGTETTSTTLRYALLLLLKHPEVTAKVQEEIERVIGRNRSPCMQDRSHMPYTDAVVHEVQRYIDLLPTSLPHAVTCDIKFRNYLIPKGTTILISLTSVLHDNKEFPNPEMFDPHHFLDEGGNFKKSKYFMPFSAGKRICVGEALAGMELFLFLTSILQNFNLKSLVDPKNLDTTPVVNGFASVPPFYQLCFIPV
Experimental: as §1, §2, §3

cytochrome P450 3A4 = target: T13, cytochrome P450 3A4 (Homo sapiens, UniProt P08684); type: in vitro ADME; details: microsomes, 10 min, 10 µM
T13 construct: tissue BD Gentest; host or cells: human liver microsomes
Experimental: as §1, §2, §3

HEL = test: Cell proliferation assay (MTS); type: cell-based; details: Homo sapiens, AML, 48 h
SET7-9 = target: T14, SET7-9 (Homo sapiens, UniProt Q8WTS6); test: Epigenetics selectivity panel (BPS Bioscience); type: biochemical
T14 construct: purchased DiscoverX KINOMEscan (kinases); BPS Bioscience (epigenetic targets)
T14 sequence (Q8WTS6 whole entry): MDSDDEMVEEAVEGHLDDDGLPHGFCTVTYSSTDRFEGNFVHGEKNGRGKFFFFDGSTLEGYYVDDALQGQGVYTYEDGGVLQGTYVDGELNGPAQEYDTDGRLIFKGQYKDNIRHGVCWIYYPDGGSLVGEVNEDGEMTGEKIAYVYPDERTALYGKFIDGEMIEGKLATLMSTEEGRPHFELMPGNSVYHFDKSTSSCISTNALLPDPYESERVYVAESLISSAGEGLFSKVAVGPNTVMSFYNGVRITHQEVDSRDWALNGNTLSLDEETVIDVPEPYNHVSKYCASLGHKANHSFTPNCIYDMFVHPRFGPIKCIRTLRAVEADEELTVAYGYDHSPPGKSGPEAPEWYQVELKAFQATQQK

SK-MEL-147 = test: Cell proliferation assay (MTS); type: cell-based; details: Homo sapiens, Melanoma
HELA = test: Cell proliferation assay (MTS); type: cell-based; details: Homo sapiens, Cervical

In the case of `COc1cc2c(NC3CCN(C)CC3)cc(-c3ccc(C)o3)nc2cc1OCCCN1CCCC1` [CM-272, 6-methoxy-2-(5-methyl-2-furyl)-N-(1-methyl-4-piperidyl)-7-(3-pyrrolidin-1-ylpropoxy)quinolin-4-amine], the inhibition at 10 µM (JMJD2A) is reported as 1%, the inhibition at 10 µM (Human HDAC6) is reported as 0% and the GI50 (SK-MEL-103) is reported as 281 nM. The “PAMPA (Pe)” value (PAMPA permeability) was 0.16 10-6 in nm/s, the GI50 (H460) was 1480 nM and the inhibition at 10 µM (PRMT3) was 7%. It also gave an inhibition at 10 µM (ATAD2B) of 0%, a GI50 (NOMO-1) of 3560 nM and a GI50 (KASUMI-1) of 7140 nM. The GI50 (MGH-U3) was 456 nM, the half-life at 1 µM [1] was greater than 2.42 h and the GI50 (OPM2) was 2610 nM. It also gave a GI50 (JJN3) of 1320 nM, a GI50 (A549) of 937 nM and an inhibition at 10 µM (PRMT8) of 11%. The GI50 (RT112) was 899 nM, the GI50 (UACC-62) was 780 nM and the GI50 (451-LU) was 378 nM. The GI50 (H358) was 644 nM, the GI50 (COLO-205) was 679 nM and the IC50 (DNMT3B) was 1200 nM. For the same compound, the inhibition at 10 µM (JMJD2D) was 5%, the GI50 (NALM-20) was greater than 5000 nM and the GI50 (MGH-U4) was 725 nM. The GI50 (CAKI-2) was 2920 nM, the inhibition at 10 µM (CREBBP) was 5% and the inhibition at 10 µM (JMJD1A) was 8%. For the same compound, the GI50 (KMS28BM) was 1630 nM, the “P450s Inhibition: 2C19” value (cytochrome P450 2C19) was less than 10% and the “P450s Inhibition: 2D6” value (cytochrome P450 2D6) was less than 10%. For the same compound, the “P450s Inhibition: 2C9” value (cytochrome P450 2C9) was less than 10%, the “P450s Inhibition: 3A4” value (cytochrome P450 3A4) was less than 10% and the GI50 (HEL) was greater than 10000 nM. It also gave an inhibition at 10 µM (SET7-9) of 3%, a GI50 (SK-MEL-147) of 422 nM and a GI50 (HELA) of 689 nM.

Work on `COc1cc2c(NCC3CCN(C)CC3)cc(-c3ccc(C)o3)nc2cc1OCCCN1CCCC1` [CM-579, 6-methoxy-2-(5-methyl-2-furyl)-N-[(1-methyl-4-piperidyl)methyl]-7-(3-pyrrolidin-1-ylpropoxy)quinolin-4-amine] yielded an inhibition at 10 µM (JMJD2A) of 30%, an inhibition at 10 µM (Human HDAC6) of 0% and a GI50 (SK-MEL-103) of 29 nM. The “PAMPA (Pe)” value (PAMPA permeability) was 0.01 10-6 in nm/s, the GI50 (H460) was 4110 nM and the inhibition at 10 µM (PRMT3) was 5%. It also gave an inhibition at 10 µM (ATAD2B) of 0%, a GI50 (NOMO-1) greater than 10000 nM and a GI50 (KASUMI-1) of 5210 nM. For the same compound, the GI50 (MGH-U3) was 141 nM, the half-life at 1 µM [1] was 1.48 h and the GI50 (OPM2) was greater than 5000 nM. The GI50 (JJN3) was 4350 nM, the GI50 (A549) was 122 nM and the inhibition at 10 µM (PRMT8) was 12%. It also gave a GI50 (RT112) of 319 nM, a GI50 (UACC-62) of 150 nM and a GI50 (451-LU) of 69 nM. For the same compound, the GI50 (H358) was 197 nM, the GI50 (COLO-205) was 275 nM and the IC50 (DNMT3B) was 1000 nM. For the same compound, the inhibition at 10 µM (JMJD2D) was 25%, the GI50 (NALM-20) was greater than 10000 nM and the GI50 (MGH-U4) was 173 nM. For the same compound, the GI50 (CAKI-2) was 304 nM, the inhibition at 10 µM (CREBBP) was 0% and the inhibition at 10 µM (JMJD1A) was 6%. The GI50 (KMS28BM) was 7820 nM, the “P450s Inhibition: 2C19” value (cytochrome P450 2C19) was less than 10% and the “P450s Inhibition: 2D6” value (cytochrome P450 2D6) was less than 10%. For the same compound, the “P450s Inhibition: 2C9” value (cytochrome P450 2C9) was less than 10%, the “P450s Inhibition: 3A4” value (cytochrome P450 3A4) was less than 10% and the GI50 (HEL) was greater than 10000 nM. It also gave an inhibition at 10 µM (SET7-9) of 0%, a GI50 (SK-MEL-147) of 32 nM and a GI50 (HELA) of 109 nM.
